In PubChem BioAssay (NCI):
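48-hour exposure; five concentrations; linearly interpolated endpoints. At the GI50, growth is halved. Definition used: TGI = concentration required for complete inhibition of growth.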

Columns and labels:
Assay in all cases: growth of human tumour cells (NCI), 48 h
NCI-H23 lung = system: NCI-H23 lung
NCI-H460 lung = system: NCI-H460 lung
NCI-H522 lung = system: NCI-H522 lung
NCI/ADR-RES ovarian = system: NCI/ADR-RES ovarian
OVCAR-3 ovarian = system: OVCAR-3 ovarian
OVCAR-4 ovarian = system: OVCAR-4 ovarian
OVCAR-5 ovarian = system: OVCAR-5 ovarian
OVCAR-8 ovarian = system: OVCAR-8 ovarian
PC-3 prostate = system: PC-3 prostate
RPMI-8226 leukemia = system: RPMI-8226 leukemia
RXF 393 renal = system: RXF 393 renal
SF-268 CNS = system: SF-268 CNS
SF-295 CNS = system: SF-295 CNS
SF-539 CNS = system: SF-539 CNS
SK-MEL-2 melanoma = system: SK-MEL-2 melanoma
SK-MEL-28 melanoma = system: SK-MEL-28 melanoma
SK-MEL-5 melanoma = system: SK-MEL-5 melanoma
SK-OV-3 ovarian = system: SK-OV-3 ovarian
SN12C renal = system: SN12C renal
SNB-19 CNS = system: SNB-19 CNS
SNB-75 CNS = system: SNB-75 CNS
SR leukemia = system: SR leukemia
SW-620 colon = system: SW-620 colon
T-47D breast = system: T-47D breast
TK-10 renal = system: TK-10 renal
U251 CNS = system: U251 CNS
UACC-257 melanoma = system: UACC-257 melanoma
UACC-62 melanoma = system: UACC-62 melanoma
UO-31 renal = system: UO-31 renal

CCCCCCCCCCCC1=NC(C)(C)CN1CCO
GI50 (NCI-H23 lung): 5.56 µM | TGI (NCI-H23 lung): 18.6 µM | GI50 (NCI-H460 lung): 2.88 µM | TGI (NCI-H460 lung): 7.66 µM | GI50 (NCI-H522 lung): 4.57 µM | TGI (NCI-H522 lung): 13 µM | GI50 (NCI/ADR-RES ovarian): 13.9 µM | TGI (NCI/ADR-RES ovarian): 29.5 µM | GI50 (OVCAR-3 ovarian): 5.87 µM | TGI (OVCAR-3 ovarian): 11.3 µM | GI50 (OVCAR-4 ovarian): 7.45 µM | TGI (OVCAR-4 ovarian): 21.5 µM | GI50 (OVCAR-5 ovarian): 15.9 µM | TGI (OVCAR-5 ovarian): 30.9 µM | GI50 (OVCAR-8 ovarian): 10.7 µM | TGI (OVCAR-8 ovarian): 29.9 µM | GI50 (PC-3 prostate): 3.29 µM | TGI (PC-3 prostate): 17.2 µM | GI50 (RPMI-8226 leukemia): 2.3 µM | TGI (RPMI-8226 leukemia): 7.46 µM | GI50 (RXF 393 renal): 3.94 µM | TGI (RXF 393 renal): 10.5 µM | GI50 (SF-268 CNS): 6.68 µM | TGI (SF-268 CNS): 20.3 µM | GI50 (SF-295 CNS): 2.98 µM | TGI (SF-295 CNS): 9.85 µM | GI50 (SF-539 CNS): 4.37 µM | TGI (SF-539 CNS): 8.79 µM | GI50 (SK-MEL-2 melanoma): 8.15 µM | TGI (SK-MEL-2 melanoma): 22.4 µM | GI50 (SK-MEL-28 melanoma): 2.12 µM | TGI (SK-MEL-28 melanoma): 4.35 µM | GI50 (SK-MEL-5 melanoma): 12 µM | TGI (SK-MEL-5 melanoma): 25.1 µM | GI50 (SK-OV-3 ovarian): 14.8 µM | TGI (SK-OV-3 ovarian): 29.2 µM | GI50 (SN12C renal): 9.95 µM | TGI (SN12C renal): 24.8 µM | GI50 (SNB-19 CNS): 15.1 µM | TGI (SNB-19 CNS): 30.9 µM | GI50 (SNB-75 CNS): 7.93 µM | TGI (SNB-75 CNS): 21.6 µM | GI50 (SR leukemia): 2.38 µM | TGI (SR leukemia): 5.79 µM | GI50 (SW-620 colon): 1.95 µM | TGI (SW-620 colon): 3.94 µM | GI50 (T-47D breast): 4.04 µM | TGI (T-47D breast): 16.9 µM | GI50 (TK-10 renal): 10.8 µM | TGI (TK-10 renal): 28.9 µM | GI50 (U251 CNS): 2.8 µM | TGI (U251 CNS): 9.46 µM | GI50 (UACC-257 melanoma): 3.63 µM | TGI (UACC-257 melanoma): 11.5 µM | GI50 (UACC-62 melanoma): 1.97 µM | TGI (UACC-62 melanoma): 4.41 µM | GI50 (UO-31 renal): 7.25 µM | TGI (UO-31 renal): 21 µM
